System: T1, PurA
T1 construct: ORF of 1,551 nt, pET24a(+), His-tagged, E. coli Rosetta2 (DE3), Ni-column; calculated 55,563 Da; monomer
Assay: peroxidase-coupled H2O2 assay (DAOS/4-aminoantipyrine)
Format: biochemical, Paenarthrobacter sp. No. 37
Details: oxygen as electron acceptor; Tris-HCl pH 8.0; 28°C; apparent steady-state constants

Km: 43.4 ± 6.6 µM
SMILES: O=c1c(-c2ccc(O)cc2)coc2c([C@@H]3O[C@H](CO)[C@@H](O)[C@H](O)[C@H]3O)c(O)ccc12 [compound 1, puerarin]
